The record followed here is US4043759A (priority 1976, dated 1977).

The data set is described as follows: Methotrexate concentration in patient serum as function of time after injection, by the radioassay. It is filed as in vivo. The procedure:
The preparation of patient samples, such as patient serum and spinal fluid, is as follows:
1. Take 0.3 ml of fluid to be tested and add to 2.7 ml Buffer B to provide a 1:10 dilution.
2. Take 0.3 ml of 1:10 dilution and add to 2.7 ml of Buffer B to provide a 1:100 dilution.
3. Take 0.3 ml of 1:100 dilution and add to 2.7 ml Buffer B to provide a 1:1000 dilution.
4. Take 0.3 ml of 1:1000 dilution and add to 2.7 ml Buffer B to provide 1:10,000 dilution.
6. Centrifuge for 1 or 2 minutes at 2500 × g.
7. Decant supernate liquid into clean tubes.

Consider `CN(Cc1cnc2nc(N)nc(N)c2n1)c1ccc(C(=O)N[C@@H](CCC(=O)O)C(=O)O)cc1` [Methotrexate], for which the “Concentration of Methotrexate” value (after infusion) stood at 66000 ng/mL. For the same compound, under “human, 24 hours after injection”, the concentration at 24 h was 7200 ng/mL. In addition, the concentration at 48 h (human, 48 hours after injection) is 420 ng/mL. Also, where the note is “human, 63 hours after injection”, the concentration at 63 h turned out to be 290 ng/mL. Under “human, 72 hours after injection”, this compound returned a concentration at 72 h of 200 ng/mL.
